Paper PMC7048748, “Anxiolytic Drug FGIN-1-27 Ameliorates Autoimmunity by Metabolic Reprogramming of Pathogenic Th17 Cells” (Scientific Reports, 2020)

Tested on: Th17 cells
Assay: Lipidomics of Th17 cells
Assay type: cell-based, mouse
Set-up: key to nCE(16:0) / nCE(18:2) / nDCER(22:0) / nDCER[FA14:0] / nFFA(12:0) / nFFA(14:1) / nFFA(18:4) / nCE(22:0) / nCE(22:6) / nCE(24:1) / nCE[FA14:1] / nCE(12:0) / nCE[FA16:0] / nCE[FA17:0] / nCE[FA18:2] / nCE[FA22:6]: mole percent of each fatty acid within its lipid class; key to nDCER[FA18:1]: mole percent of fatty acid within lipid class
Experimental: Specific cholesterol precursors like desmosterol and oxysterols, such as 7β, 27-dihydroxycholesterol (7β, 27-OHC), have been identified as ligands for RORγt[21],[22] and shown to modulate Th17 differentiation. […] Next, we extended our studies to lipid metabolites and profiled the lipidome of Th17 cells treated with DMSO or FGIN-1-27.
(a) Quantitation of cholesterol esters, triacylglycerols (TAGs), phosphatidylethanolamine (PE) and phosphatidylcholine (PC) in Th17 cells 72 hours after treatment with FGIN-1-27. The error bars represent SD. (b) Heat map showing fatty acid composition (mole percent) for different lipid classes after treatment with FGIN-1-27. (c) Pie charts showing proportions of different fatty acid classes namely PUFAs, MUFAs, ODD and SFAs within the cholesterol esters. (d) Transcript analysis for CD5L 72 hours post treatment with FGIN-1-27. The error bars represent SD.
Th17 cells were differentiated from naïve purified CD4 T cells and treated with either FGIN-1-27 (10 µM) or DMSO during polarization. 10 million cells/treatment were harvested and snap frozen. […] The extracts were concentrated under nitrogen and reconstituted in 0.25 mL of dichloromethane:methanol (50:50) containing 10 mM ammonium acetate. The extracts were placed in vials for infusion-MS analyses, performed on a SelexION equipped Sciex 5500 QTRAP using both positive and negative mode electrospray. Each sample was subjected to 2 analyses, with IMS-MS conditions optimized for lipid classes monitored in each analysis. The 5500 QTRAP was operated in MRM mode to monitor the transitions for over 1,100 lipids from up to 14 lipid classes. Individual lipid species were quantified based on the ratio of signal intensity for target compounds to the signal intensity for an assigned internal standard of known concentration. Lipid class concentrations were calculated from the sum of all molecular species within a class, and fatty acid compositions were determined by calculating the proportion of individual fatty acids within each class.

`CCCCCCN(CCCCCC)C(=O)Cc1c(-c2ccc(F)cc2)[nH]c2ccccc12` [FGIN-1-27, N, N-di-n-hexyl 2-(4-fluorophenyl) indole-3-acetamide] was tested, and the “nDAG(15:0/18:2)” value (Th17 cells, 10 µM) was 0.0745, the “nDAG(16:0/16:0)” value (Th17 cells, 10 µM) was 19.5066 and the “nDAG(16:0/16:1)” value (Th17 cells, 10 µM) was 3.679. For the same molecule, the “nDAG(16:0/18:0)” value (Th17 cells, 10 µM) was 17.7482, the “nDAG(16:0/18:1)” value (Th17 cells, 10 µM) was 17.8834 and the “nDAG(16:0/18:2)” value (Th17 cells, 10 µM) was 1.3367. For the same molecule, the “nDAG(16:0/18:3)” value (Th17 cells, 10 µM) was 0.06918, the “nDAG(16:0/20:3)” value (Th17 cells, 10 µM) was 2.168 and the “nDAG(16:0/20:4)” value (Th17 cells, 10 µM) was 0.4462. The “nDAG(16:0/20:5)” value (Th17 cells, 10 µM) was 0.02527, the “nDAG(16:0/22:5)” value (Th17 cells, 10 µM) was 0.2343 and the “nDAG(16:0/22:6)” value (Th17 cells, 10 µM) was 0.3639. For the same molecule, the “nDAG(16:1/16:1)” value (Th17 cells, 10 µM) was 0.2383, the “nDAG(16:1/18:0)” value (Th17 cells, 10 µM) was 0.9172 and the “nDAG(16:1/18:1)” value (Th17 cells, 10 µM) was 1.986. For the same molecule, the “nDAG(16:1/18:2)” value (Th17 cells, 10 µM) was 0.2498, the “nDAG(16:1/18:3)” value (Th17 cells, 10 µM) was 0.05893 and the “nDAG(16:1/20:0)” value (Th17 cells, 10 µM) was 0.281. For the same molecule, the “nDAG(16:1/20:2)” value (Th17 cells, 10 µM) was 0.05259, the “nDAG(16:1/20:4)” value (Th17 cells, 10 µM) was 0.0501 and the “nDAG(16:1/22:6)” value (Th17 cells, 10 µM) was 0.1384. For the same molecule, the “nDAG(18:0/18:1)” value (Th17 cells, 10 µM) was 4.793, the “nDAG(18:0/18:2)” value (Th17 cells, 10 µM) was 1.2841 and the “nDAG(18:0/18:3)” value (Th17 cells, 10 µM) was 0.04099. The “nDAG(18:0/22:6)” value (Th17 cells, 10 µM) was 0.5166, the “nDAG(18:1/18:1)” value (Th17 cells, 10 µM) was 5.728 and the “nDAG(18:1/18:2)” value (Th17 cells, 10 µM) was 1.367. For the same molecule, the “nDAG(18:1/20:1)” value (Th17 cells, 10 µM) was 0.6608, the “nDAG(18:1/20:2)” value (Th17 cells, 10 µM) was 0.298 and the “nDAG(18:1/20:3)” value (Th17 cells, 10 µM) was 0.3254. The “nDAG(18:1/20:4)” value (Th17 cells, 10 µM) was 0.3507, the “nDAG(18:1/20:5)” value (Th17 cells, 10 µM) was 0.04364 and the “nDAG(18:1/22:4)” value (Th17 cells, 10 µM) was 0.1472. For the same molecule, the “nDAG(18:1/22:5)” value (Th17 cells, 10 µM) was 0.2687, the “nDAG(18:1/22:6)” value (Th17 cells, 10 µM) was 0.3639 and the “nDAG(18:2/18:3)” value (Th17 cells, 10 µM) was 0.01794. For the same molecule, the “nDAG(18:2/20:3)” value (Th17 cells, 10 µM) was 0.05124, the “nDAG(18:2/20:4)” value (Th17 cells, 10 µM) was 0.02818 and the “nDAG(18:2/20:5)” value (Th17 cells, 10 µM) was 0.009187. For the same molecule, the “nDAG(18:2/22:4)” value (Th17 cells, 10 µM) was 0.01566, the “nDAG(18:2/22:5)” value (Th17 cells, 10 µM) was 0.004594 and the “nDAG(18:2/22:6)” value (Th17 cells, 10 µM) was 0.04424. For the same molecule, the “nDAG(20:0/20:0)” value (Th17 cells, 10 µM) was 0.1788, the “nDAG[FA12:0]” value (Th17 cells, 10 µM) was 0.4433 and the “nDAG[FA14:0]” value (Th17 cells, 10 µM) was 7.546. For the same molecule, the “nDAG[FA14:1]” value (Th17 cells, 10 µM) was 0.2449, the “nDAG[FA15:0]” value (Th17 cells, 10 µM) was 0.1819 and the “nDAG[FA16:0]” value (Th17 cells, 10 µM) was 46.2571. For the same molecule, the “nDAG[FA16:1]” value (Th17 cells, 10 µM) was 4.564, the “nDAG[FA18:0]” value (Th17 cells, 10 µM) was 12.8033 and the “nDAG[FA18:1]” value (Th17 cells, 10 µM) was 21.7078. The “nDAG[FA18:2]” value (Th17 cells, 10 µM) was 2.36, the “nDAG[FA18:3]” value (Th17 cells, 10 µM) was 0.09864 and the “nDAG[FA20:0]” value (Th17 cells, 10 µM) was 0.4502. The “nDAG[FA20:1]” value (Th17 cells, 10 µM) was 0.3304, the “nDAG[FA20:2]” value (Th17 cells, 10 µM) was 0.1753 and the “nDAG[FA20:3]” value (Th17 cells, 10 µM) was 1.272. The “nDAG[FA20:4]” value (Th17 cells, 10 µM) was 0.4517, the “nDAG[FA20:5]” value (Th17 cells, 10 µM) was 0.03905 and the “nDAG[FA22:4]” value (Th17 cells, 10 µM) was 0.08141. For the same molecule, the “nDAG[FA22:5]” value (Th17 cells, 10 µM) was 0.2538, the “nDAG[FA22:6]” value (Th17 cells, 10 µM) was 0.7392 and the nDCER (Th17 cells, 10 µM) was 0.1046. For the same molecule, the “nDCER(14:0)” value (Th17 cells, 10 µM) was 1.585, the “nDCER(16:0)” value (Th17 cells, 10 µM) was 30.1076 and the “nDCER(18:0)” value (Th17 cells, 10 µM) was 3.38. The “nDCER(18:1)” value (Th17 cells, 10 µM) was 0.4226, the “nDCER(20:0)” value (Th17 cells, 10 µM) was 4.543 and the “nDCER(20:1)” value (Th17 cells, 10 µM) was 0.06424. The “nDCER(22:0)” value (Th17 cells, 10 µM) was 7.184, the “nDCER(22:1)” value (Th17 cells, 10 µM) was 1.69 and the “nDCER(24:0)” value (Th17 cells, 10 µM) was 25.6706. The “nDCER(24:1)” value (Th17 cells, 10 µM) was 24.1916, the “nDCER(26:0)” value (Th17 cells, 10 µM) was 0.1056 and the “nDCER(26:1)” value (Th17 cells, 10 µM) was 1.0564. For the same molecule, the “nDCER[FA14:0]” value (Th17 cells, 10 µM) was 1.585, the “nDCER[FA16:0]” value (Th17 cells, 10 µM) was 30.1076 and the “nDCER[FA18:0]” value (Th17 cells, 10 µM) was 3.38. The “nDCER[FA18:1]” value (Th17 cells, 10 µM) was 0.4226, the “nDCER[FA20:0]” value (Th17 cells, 10 µM) was 4.543 and the “nDCER[FA20:1]” value (Th17 cells, 10 µM) was 0.06424. The “nDCER[FA22:0]” value (Th17 cells, 10 µM) was 7.184, the “nDCER[FA22:1]” value (Th17 cells, 10 µM) was 1.69 and the “nDCER[FA24:0]” value (Th17 cells, 10 µM) was 25.6706. The “nDCER[FA24:1]” value (Th17 cells, 10 µM) was 24.1916, the “nDCER[FA26:0]” value (Th17 cells, 10 µM) was 0.1056 and the “nDCER[FA26:1]” value (Th17 cells, 10 µM) was 1.0564. For the same molecule, the nFFA (Th17 cells, 10 µM) was 4.287, the “nFFA(12:0)” value (Th17 cells, 10 µM) was 1.325 and the “nFFA(14:0)” value (Th17 cells, 10 µM) was 3.367. For the same molecule, the “nFFA(14:1)” value (Th17 cells, 10 µM) was 0.5145, the “nFFA(15:0)” value (Th17 cells, 10 µM) was 1.588 and the “nFFA(16:0)” value (Th17 cells, 10 µM) was 33.0903. The “nFFA(16:1)” value (Th17 cells, 10 µM) was 1.393, the “nFFA(17:0)” value (Th17 cells, 10 µM) was 2.524 and the “nFFA(18:0)” value (Th17 cells, 10 µM) was 24.6299. For the same molecule, the “nFFA(18:1)” value (Th17 cells, 10 µM) was 8.8316, the “nFFA(18:2)” value (Th17 cells, 10 µM) was 4.005 and the “nFFA(18:3)” value (Th17 cells, 10 µM) was 1.526. The “nFFA(18:4)” value (Th17 cells, 10 µM) was 0.3971, the “phosphatidylethanolamine (PE) and phosphatidylcholine (PC)” value (not statistically significant) was “modestly increased” and the “lipid metabolites with differential levels” value (of 1300 lipid metabolites, p < 0.05) was 39.6%.
